Measurements published in patent US20230279025A1, “KRAS G12D INHIBITORS” (Mirati Therapeutics, Inc., priority 2020, published 2023).
Structures can show the parent of a compound that is named as a salt.

Target: KRas G12D (Homo sapiens (Human), UniProt P01116, G12D)
Assay: KRas G12D Binding Assay (TR-FRET displacement of Cy5 labelled tracer)
Settings: GDP-loaded KRAS G12D (amino acids 1:169), 60 minute incubation at 22° C.
Protocol: After a 60 minute incubation at 22° C., the reaction was measured using a PerkinElmer EnVision multimode plate reader via TR-FRET dual wavelength detection, and the percent of control (POC) calculated using a ratiometric emission factor. […] The POC values were fit to a 4-parameter logistic curve and the IC50 value was determined as the concentration where the curve crosses 50 POC.
ND stands for “not determined.”

Sequence of KRas G12D (P01116 other isoform, or with tags, fused parts or gaps G12D): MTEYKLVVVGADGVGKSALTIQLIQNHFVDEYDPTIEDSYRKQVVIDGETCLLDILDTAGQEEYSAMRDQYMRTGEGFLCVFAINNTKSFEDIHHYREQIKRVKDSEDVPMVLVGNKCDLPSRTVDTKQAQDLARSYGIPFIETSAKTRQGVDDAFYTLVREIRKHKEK

Compound	IC50
Fc1c(-c2cccc3cccc(Cl)c23)ncc2c(N3CC4CCC(C3)N4)nc(OC[C@@]34CCCN3C[C@@H](C(F)(F)F)C4)nc12 (mixture of isomers) [Example 382]	21.1 nM
Oc1cc(-c2ncc3c(N4C[C@H]5CC[C@@H](C4)N5)nc(OCC45CCCN4C(CF)CC5)nc3c2F)c2ccccc2c1 (mixture of isomers) [Example 384, 4-(4-((1R,5S)-3,8-diazabicyclo[3.2.1]octan-3-yl)-8-fluoro-2-((3-(fluoromethyl)tetrahydro-1H-pyrrolizin-7a(5H)-yl)methoxy)pyrido[4,3-d]pyrimidin-7-yl)naphthalen-2-ol]	2.4 nM
COC1CN2CCCC2(COc2nc(N3CC4CCC(C3)N4)c3cnc(-c4cc(O)cc5cccc(F)c45)c(F)c3n2)C1 (mixture of isomers) [Example 388, 4-(4-((1R,5S)-3,8-diazabicyclo[3.2.1]octan-3-yl)-8-fluoro-2-((2-methoxytetrahydro-1H-pyrrolizin-7a(5H)-yl)methoxy)pyrido[4,3-d]pyrimidin-7-yl)-5-fluoronaphthalen-2-ol]	0.6 nM
CCc1cccc2cncc(-c3ncc4c(N5CC6CCC(C5)N6)nc(OCC56CCCN5C[C@H](F)C6)nc4c3F)c12 (mixture of isomers) [Example 324, 4-((1R,5S)-3,8-diazabicyclo[3.2.1]octan-3-yl)-7-(5-ethylisoquinolin-4-yl)-8-fluoro-2-((2-fluorotetrahydro-1H-pyrrolizin-7a(5H)-yl)methoxy)pyrido[4,3-d]pyrimidine (racemic, trans)]	10.2 nM
CC1(C)CN2C[C@H](F)CC2(COc2nc(N3CC4CCC(C3)N4)c3cnc(-c4cccc5cccc(Cl)c45)c(F)c3n2)C1 (mixture of isomers) [Example 325, 4-((1R,5S)-3,8-diazabicyclo[3.2.1]octan-3-yl)-7-(8-chloronaphthalen-1-yl)-8-fluoro-2-((6-fluoro-2,2-dimethyltetrahydro-1H-pyrrolizin-7a(5H)-yl)methoxy)pyrido[4,3-d]pyrimidine (racemic, trans)]	141 nM
Oc1cc(-c2ncc3c(N4CC5CCC(C4)N5)nc(OCC45CCCN4C[C@H](F)C5)nc3c2F)c2c(Cl)cccc2c1 (mixture of isomers) [Example 330, 4-(4-((1R,5S)-3,8-diazabicyclo[3.2.1]octan-3-yl)-8-fluoro-2-((2-fluorotetrahydro-1H-pyrrolizin-7a(5H)-yl)methoxy)pyrido[4,3-d]pyrimidin-7-yl)-5-chloronaphthalen-2-ol (racemic, trans)]	2.5 nM
Cc1ccc2[nH]ncc2c1-c1ncc2c(N3CC4CCC(C3)N4)nc(OCC34CCCN3C[C@H](F)C4)nc2c1F (mixture of isomers) [Example 331, 4-((1R,5S)-3,8-diazabicyclo[3.2.1]octan-3-yl)-8-fluoro-2-((2-fluorotetrahydro-1H-pyrrolizin-7a(5H)-yl)methoxy)-7-(5-methyl-1H-indazol-4-yl)pyrido[4,3-d]pyrimidine (racemic, trans)]	114 nM
Oc1cc(-c2ncc3c(N4CC5C[C@@H](n6cncn6)C(C4)N5)nc(OC[C@@]45CCCN4C[C@H](F)C5)nc3c2F)c2ccccc2c1 (mixture of isomers) [Example 333, 4-(4-((6R)-6-(1H-1,2,4-triazol-1-yl)-3,8-diazabicyclo[3.2.1]octan-3-yl)-8-fluoro-2-((2-fluorotetrahydro-1H-pyrrolizin-7a(5H)-yl)methoxy)pyrido[4,3-d]pyrimidin-7-yl)naphthalen-2-ol (racemic, trans)]	450 nM
Fc1ccc2cccc(-c3ncc4c(N5CC6CCC(C5)N6)nc(OC[C@@]56CCCN5C[C@H](F)C6)nc4c3F)c2c1Cl (racemic) [Example 336, 4-((1R,5S)-3,8-diazabicyclo[3.2.1]octan-3-yl)-7-(8-chloro-7-fluoronaphthalen-1-yl)-8-fluoro-2-((2-fluorotetrahydro-1H-pyrrolizin-7a(5H)-yl)methoxy)pyrido[4,3-d]pyrimidine (racemic, trans)]	3.1 nM
Oc1ccc(OC(F)(F)F)c(-c2ncc3c(N4CC5CCC(C4)N5)nc(OCC45CCCN4C[C@H](F)C5)nc3c2F)c1 (mixture of isomers) [Example 340, 3-(4-((1R,5S)-3,8-diazabicyclo[3.2.1]octan-3-yl)-8-fluoro-2-((2-fluorotetrahydro-1H-pyrrolizin-7a(5H)-yl)methoxy)pyrido[4,3-d]pyrimidin-7-yl)-4-(trifluoromethoxy)phenol (racemic, trans)]	0.4 nM
Fc1c(-c2cccc(Cl)c2C2CC2)ncc2c(N3CC4CCC(C3)N4)nc(OCC34CCCN3C[C@H](F)C4)nc12 (mixture of isomers) [Example 342, 4-((1R,5S)-3,8-diazabicyclo[3.2.1]octan-3-yl)-7-(3-chloro-2-cyclopropylphenyl)-8-fluoro-2-((2-fluorotetrahydro-1H-pyrrolizin-7a(5H)-yl)methoxy)pyrido[4,3-d]pyrimidine (racemic, trans)]	3.4 nM
Fc1c(-c2c(C(F)(F)F)ccc3[nH]ncc23)ncc2c(N3CC4CCC(C3)N4)nc(OCC34CCCN3C[C@H](F)C4)nc12 (mixture of isomers) [Example 343, 4-((1R,5S)-3,8-diazabicyclo[3.2.1]octan-3-yl)-8-fluoro-2-((2-fluorotetrahydro-1H-pyrrolizin-7a(5H)-yl)methoxy)-7-(5-(trifluoromethyl)-1H-indazol-4-yl)pyrido[4,3-d]pyrimidine (racemic, trans)]	10.4 nM
Cc1cccc(O)c1-c1ncc2c(N3CC4CCC(C3)N4)nc(OC[C@@]34CCCN3C[C@H](F)C4)nc2c1F (racemic) [Example 377, 2-(4-((1R,5S)-3,8-diazabicyclo[3.2.1]octan-3-yl)-8-fluoro-2-((2-fluorotetrahydro-1H-pyrrolizin-7a(5H)-yl)methoxy)pyrido[4,3-d]pyrimidin-7-yl)-3-methylphenol]	417 nM
Fc1c(-c2ccccc2[C@@H]2C[C@H]2F)ncc2c(N3C[C@H]4CC[C@@H](C3)N4)nc(OCC34CCCN3CCC4)nc12 (relative stereo) [Example 285, 4-((1R,5S)-3,8-diazabicyclo[3.2.1]octan-3-yl)-8-fluoro-7-(2-(trans-2-fluorocyclopropyl)phenyl)-2-((hexahydro-1H-pyrrolizin-7a-yl)methoxy)pyrido[4,3-d]pyrimidine]	279 nM
Cn1cc([C@H]2CN3CCC[C@]3(COc3nc(N4CC5CCC(C4)N5)c4cnc(-c5cccc6cccc(Cl)c56)c(F)c4n3)C2)cn1 (stereo in doubt) [Example 220, 4-((1R,5S)-3,8-diazabicyclo[3.2.1]octan-3-yl)-7-(8-chloronaphthalen-1-yl)-8-fluoro-2-((2-(1-methyl-1H-pyrazol-4-yl)tetrahydro-1H-pyrrolizin-7a(5H)-yl)methoxy)pyrido[4,3-d]pyrimidine tris-hydrochloride salt]	8.7 nM
Fc1c(-c2cccc3cccc(Cl)c23)ncc2c(N3CC4CCC(C3)N4)nc(OC[C@]34CCCN3C[C@H](c3ccccc3)C4)nc12 (stereo in doubt) [Example 221, 4-((1R,5S)-3,8-diazabicyclo[3.2.1]octan-3-yl)-7-(8-chloronaphthalen-1-yl)-8-fluoro-2-((2-phenyltetrahydro-1H-pyrrolizin-7a(5H)-yl)methoxy)pyrido[4,3-d]pyrimidine bis-hydrochloride salt]	15.7 nM
O[C@H]1CN2CCC[C@]2(COc2nc(N3CC4CCC(C3)N4)c3cnc(-c4cccc5cccc(Cl)c45)c(F)c3n2)C1 (stereo in doubt) [Example 224, 7a-(((4-((1R,5S)-3,8-diazabicyclo[3.2.1]octan-3-yl)-7-(8-chloronaphthalen-1-yl)-8-fluoropyrido[4,3-d]pyrimidin-2-yl)oxy)methyl)hexahydro-1H-pyrrolizin-2-ol bis-hydrochloride]	27 nM
C[C@H]1CN2CCC[C@@]2(COc2nc(N3CC4CCC(C3)N4)c3cnc(-c4cccc5cccc(Cl)c45)c(F)c3n2)C1 (stereo in doubt) [Example 227, 4-((1R,5S)-3,8-diazabicyclo[3.2.1]octan-3-yl)-7-(8-chloronaphthalen-1-yl)-8-fluoro-2-((2-methyltetrahydro-1H-pyrrolizin-7a(5H)-yl)methoxy)pyrido[4,3-d]pyrimidine bis-hydrochloride]	6.4 nM
N#C[C@H]1CCN2CCC[C@@]12COc1nc(N2CC3CCC(C2)N3)c2cnc(-c3cccc4cccc(Cl)c34)c(F)c2n1 (stereo in doubt) [Example 379, 7a-(((4-((1R,5S)-3,8-diazabicyclo[3.2.1]octan-3-yl)-7-(8-chloronaphthalen-1-yl)-8-fluoropyrido[4,3-d]pyrimidin-2-yl)oxy)methyl)hexahydro-1H-pyrrolizine-1-carbonitrile]	249 nM
CCc1c(F)ccc2cccc(-c3ncc4c(N5CC6CCC(C5)N6)nc(OC[C@@]56CCCN5C[C@H](F)C6)nc4c3F)c12 (stereo in doubt) [Example 381, 4-((1R,5S)-3,8-diazabicyclo[3.2.1]octan-3-yl)-7-(8-ethyl-7-fluoronaphthalen-1-yl)-8-fluoro-2-((2-fluorotetrahydro-1H-pyrrolizin-7a(5H)-yl)methoxy)pyrido[4,3-d]pyrimidine]	0.7 nM
COC[C@H]1CC[C@@]2(COc3nc(N4CC5CCC(C4)N5)c4cnc(-c5cc(O)cc6ccccc56)c(F)c4n3)CCCN12 (stereo in doubt) [Example 389, 4-(4-((1R,5S)-3,8-diazabicyclo[3.2.1]octan-3-yl)-8-fluoro-2-((3-(methoxymethyl)tetrahydro-1H-pyrrolizin-7a(5H)-yl)methoxy)pyrido[4,3-d]pyrimidin-7-yl)naphthalen-2-ol]	1.4 nM
COC(c1ccc(O)cc1-c1ncc2c(N3CC4CCC(C3)N4)nc(OC[C@@]34CCCN3C[C@H](F)C4)nc2c1F)C(F)(F)F (stereo in doubt) [Example 390, 3-(4-((1R,5S)-3,8-diazabicyclo[3.2.1]octan-3-yl)-8-fluoro-2-((2-fluorotetrahydro-1H-pyrrolizin-7a(5H)-yl)methoxy)pyrido[4,3-d]pyrimidin-7-yl)-4-(2,2,2-trifluoro-1-methoxyethyl)phenol]	36.8 nM
